Reference: PubChem BioAssay (NCI)
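Five concentrations, 48 hours, 96-well plates. GI50 = concentration required for 50% inhibition of growth. TGI: total growth inhibition.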

Columns and labels:
Assay in all cases: NCI tumour cell line growth inhibition, 48 h
[1] = system: 786-0 renal
[2] = system: A498 renal
[3] = system: A549 NSCLC
[4] = system: ACHN renal
[5] = system: BT-549 breast
[6] = system: CAKI-1 renal
[7] = system: CCRF-CEM leukemia
[8] = system: COLO 205 colon
[9] = system: DU-145 prostate
[10] = system: EKVX NSCLC
[11] = system: HCC-2998 colon
[12] = system: HCT-116 colon
[13] = system: HCT-15 colon
[14] = system: HL-60(TB) leukemia
[15] = system: HOP-62 NSCLC
[16] = system: HOP-92 NSCLC
[17] = system: HS 578T breast
[18] = system: HT29 colon
[19] = system: IGROV1 ovarian
[20] = system: K-562 leukemia
[21] = system: KM12 colon
[22] = system: LOX IMVI melanoma
[23] = system: M14 melanoma
[24] = system: MALME-3M melanoma
[25] = system: MCF7 breast
[26] = system: MDA-MB-231 breast
[27] = system: MDA-MB-435
[28] = system: MOLT-4 leukemia
[29] = system: NCI-H226 lung
[30] = system: NCI-H23 lung
[31] = system: NCI-H460 lung
[32] = system: NCI-H522 lung
[33] = system: NCI/ADR-RES ovarian
[34] = system: OVCAR-3 ovarian
[35] = system: OVCAR-4 ovarian
[36] = system: OVCAR-5 ovarian
[37] = system: OVCAR-8 ovarian
[38] = system: PC-3 prostate
[39] = system: RPMI-8226 leukemia
[40] = system: RXF 393 renal
[41] = system: SF-268 CNS
[42] = system: SF-295 CNS
[43] = system: SF-539 CNS
[44] = system: SK-MEL-2 melanoma
[45] = system: SK-MEL-28 melanoma
[46] = system: SK-MEL-5 melanoma
[47] = system: SK-OV-3 ovarian
[48] = system: SN12C renal
[49] = system: SNB-19 CNS
[50] = system: SNB-75 CNS
[51] = system: SR leukemia
[52] = system: SW-620 colon
[53] = system: T-47D breast
[54] = system: TK-10 renal
[55] = system: U251 CNS
[56] = system: UACC-257 melanoma
[57] = system: UACC-62 melanoma
[58] = system: UO-31 renal
[59] = system: MDA-N

CN1CCN(Cc2ccc(NC(=O)c3[nH]ncc3Nc3ccnc4ccsc34)cc2)CC1 gave a GI50 [1] of 3.84 µM, a TGI [1] of 13.6 µM and a GI50 [2] of 1.64 µM. It also gave a TGI [2] of 4.87 µM, a GI50 [3] of 3.04 µM and a TGI [3] of 14.5 µM. For the same molecule, the GI50 [4] was 2.66 µM, the TGI [4] was 9.9 µM and the GI50 [5] was 4.3 µM. The TGI [5] was 15.9 µM, the GI50 [6] was 6.04 µM and the TGI [6] was 27.6 µM. For the same molecule, the GI50 [7] was 2.45 µM, the TGI [7] was 9.26 µM and the GI50 [8] was 1.42 µM. The TGI [8] was 8.32 µM, the GI50 [9] was 2.17 µM and the TGI [9] was 11.6 µM. The GI50 [10] was 2.74 µM, the TGI [10] was 9.81 µM and the GI50 [11] was 2.75 µM. The TGI [11] was 10.1 µM, the GI50 [12] was 1.51 µM and the TGI [12] was 11.7 µM. For the same molecule, the GI50 [13] was 3.25 µM, the TGI [13] was 16.1 µM and the GI50 [14] was 2.49 µM. The TGI [14] was 5.85 µM, the GI50 [15] was 2.82 µM and the TGI [15] was 14.2 µM. It also gave a GI50 [16] of 3.89 µM, a TGI [16] of 8.92 µM and a GI50 [17] of 2.09 µM. The TGI [17] was 14.4 µM, the GI50 [18] was 2.04 µM and the TGI [18] was 33.8 µM. It also gave a GI50 [19] of 2.82 µM, a TGI [19] of 16.7 µM and a GI50 [20] of 2.47 µM. For the same molecule, the TGI [20] was > 100 µM, the GI50 [21] was 2.35 µM and the TGI [21] was 11.2 µM. For the same molecule, the GI50 [22] was 1.33 µM, the TGI [22] was 4.59 µM and the GI50 [23] was 3.69 µM. For the same molecule, the TGI [23] was 16.9 µM, the GI50 [24] was 3.44 µM and the TGI [24] was 13.7 µM. It also gave a GI50 [25] of 0.489 µM, a TGI [25] of 11.7 µM and a GI50 [26] of 3.56 µM. For the same molecule, the TGI [26] was 9.71 µM, the GI50 [27] was 3.22 µM and the TGI [27] was 17.9 µM. It also gave a GI50 [28] of 2.09 µM, a TGI [28] of 7.93 µM and a GI50 [29] of 2.35 µM. The TGI [29] was 13.4 µM, the GI50 [30] was 2.03 µM and the TGI [30] was 6.64 µM. The GI50 [31] was 3.15 µM, the TGI [31] was 12 µM and the GI50 [32] was 1.98 µM. The TGI [32] was 13.5 µM, the GI50 [33] was 15.7 µM and the TGI [33] was > 100 µM. For the same molecule, the GI50 [34] was 2.34 µM, the TGI [34] was 11.5 µM and the GI50 [35] was 2.32 µM. It also gave a TGI [35] of 7.47 µM, a GI50 [36] of 4.08 µM and a TGI [36] of 14.7 µM. The GI50 [37] was 3.63 µM, the TGI [37] was 16.4 µM and the GI50 [38] was 3.25 µM. The TGI [38] was 20.2 µM, the GI50 [39] was 2.95 µM and the TGI [39] was 7.18 µM. The GI50 [40] was 2.01 µM, the TGI [40] was 4.76 µM and the GI50 [41] was 3.22 µM. It also gave a TGI [41] of 11 µM, a GI50 [42] of 3.73 µM and a TGI [42] of 14.2 µM. The GI50 [43] was 1.35 µM, the TGI [43] was 3.42 µM and the GI50 [44] was 3.86 µM. It also gave a TGI [44] of 14.7 µM, a GI50 [45] of 5.23 µM and a TGI [45] of 18.4 µM. It also gave a GI50 [46] of 2.48 µM, a TGI [46] of 11.5 µM and a GI50 [47] of 1.05 µM. The TGI [47] was 23.5 µM, the GI50 [48] was 2.78 µM and the TGI [48] was 14.4 µM. It also gave a GI50 [49] of 2.81 µM, a TGI [49] of 20.2 µM and a GI50 [50] of 0.222 µM. The TGI [50] was 3.54 µM, the GI50 [51] was 1.92 µM and the TGI [51] was 7 µM. The GI50 [52] was 2.6 µM, the TGI [52] was 12 µM and the GI50 [53] was 4.95 µM. For the same molecule, the TGI [53] was 50.6 µM, the GI50 [54] was 4.97 µM and the TGI [54] was 23.1 µM. The GI50 [55] was 2.4 µM, the TGI [55] was 13.6 µM and the GI50 [56] was 11.6 µM. The TGI [56] was 30 µM, the GI50 [57] was 11.2 µM and the TGI [57] was 30.2 µM. It also gave a GI50 [58] of 1.78 µM and a TGI [58] of 10.1 µM.

In the case of CSC1=N/C(=C\c2ccc(Cl)cc2)C(=O)N1CN1CCOCC1, the TGI [1] is reported as > 100 µM, the TGI [2] is reported as > 100 µM and the TGI [3] is reported as > 100 µM. For the same molecule, the TGI [4] was > 100 µM, the TGI [7] was > 100 µM and the TGI [8] was > 100 µM. For the same molecule, the TGI [9] was > 100 µM, the TGI [10] was > 100 µM and the TGI [12] was > 100 µM. The TGI [13] was > 100 µM, the TGI [15] was > 100 µM and the TGI [16] was 30.6 µM. For the same molecule, the TGI [17] was > 100 µM, the TGI [18] was 94.4 µM and the TGI [19] was > 100 µM. For the same molecule, the TGI [20] was > 100 µM, the TGI [21] was > 100 µM and the TGI [22] was > 100 µM. For the same molecule, the TGI [23] was > 100 µM, the TGI [24] was > 100 µM and the TGI [25] was > 100 µM. The TGI [26] was > 100 µM, the TGI [27] was > 100 µM and the TGI [59] was > 100 µM. The TGI [28] was > 100 µM, the TGI [29] was > 100 µM and the TGI [30] was > 100 µM. For the same molecule, the TGI [32] was > 100 µM, the TGI [33] was > 100 µM and the TGI [34] was > 100 µM. The TGI [35] was 61.6 µM, the TGI [36] was > 100 µM and the TGI [37] was 61.6 µM. The TGI [38] was > 100 µM, the TGI [39] was > 100 µM and the TGI [41] was > 100 µM. The TGI [42] was > 100 µM, the TGI [44] was > 100 µM and the TGI [45] was > 100 µM. For the same molecule, the TGI [46] was > 100 µM, the TGI [47] was > 100 µM and the TGI [48] was > 100 µM. For the same molecule, the TGI [49] was > 100 µM, the TGI [50] was > 100 µM and the TGI [51] was > 100 µM. The TGI [52] was > 100 µM, the TGI [54] was > 100 µM and the TGI [55] was > 100 µM. The TGI [57] was > 100 µM and the TGI [58] was > 100 µM.
